Measured values taken from patent publication US20050019424A1, “Anti-angiogenesis combination therapies comprising pyridazine or pyridine derivatives” (priority 2001, published 2005).

Legend:
CYP2C9 = target: T1, CYP2C9 (Homo sapiens, UniProt P11712); test: Fluorometric cytochrome P450 inhibition assay, CYP2C9; assay type: in vitro ADME; conditions: cDNA-expressed human CYP2C9 Supersomes, substrate DBF, 5 point dose response; read-out: CYP2C9 Inh. IC50
T1 construct: purchased GENTEST Corporation P258
T1 sequence (P11712 whole entry): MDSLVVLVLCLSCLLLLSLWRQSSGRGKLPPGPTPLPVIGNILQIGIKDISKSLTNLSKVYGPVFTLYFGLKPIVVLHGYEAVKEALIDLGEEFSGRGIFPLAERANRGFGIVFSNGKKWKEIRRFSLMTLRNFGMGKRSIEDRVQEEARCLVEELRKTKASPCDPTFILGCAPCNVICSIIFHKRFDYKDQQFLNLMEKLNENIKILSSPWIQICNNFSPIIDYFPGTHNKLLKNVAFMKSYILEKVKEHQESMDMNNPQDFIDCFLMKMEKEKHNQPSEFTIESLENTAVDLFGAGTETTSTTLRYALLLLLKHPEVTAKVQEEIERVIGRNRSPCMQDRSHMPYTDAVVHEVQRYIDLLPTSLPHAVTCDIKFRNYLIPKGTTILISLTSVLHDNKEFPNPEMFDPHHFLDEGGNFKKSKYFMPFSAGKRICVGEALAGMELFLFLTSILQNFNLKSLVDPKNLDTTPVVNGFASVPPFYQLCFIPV
Experimental: The ability of the compounds described herein to inhibit cytochrome P450 activity was determined in vitro using cDNA-expressed human cytochrome P450 enzymes (Supersomes) obtained from GENTEST Corporation and various fluorescent probe substrates. Fluorometric Cytochrome P450 Inhibition assays were conducted in 96 well micotitre plates as described by GENTEST Corporation, Woburn Mass. […] Compounds were dissolved in 70% DMSO such that the concentration of DMSO in the assay was 0.7%. […] Incubations with known inhibitors of each P450 isoform were included as positive controls. Fluorescence per well was measured using a Spectramax Gemini XS (Molecular Devices) and IC50 values of the compounds tested were determined using the 5 point dose response. The sigmoidal dose response curves were generated by non linear regression using a four parameter logistic equation.

CYP1A2 = target: T2, CYP1A2 (Homo sapiens, UniProt P05177); test: biochemical
T2 sequence (P05177 1-516): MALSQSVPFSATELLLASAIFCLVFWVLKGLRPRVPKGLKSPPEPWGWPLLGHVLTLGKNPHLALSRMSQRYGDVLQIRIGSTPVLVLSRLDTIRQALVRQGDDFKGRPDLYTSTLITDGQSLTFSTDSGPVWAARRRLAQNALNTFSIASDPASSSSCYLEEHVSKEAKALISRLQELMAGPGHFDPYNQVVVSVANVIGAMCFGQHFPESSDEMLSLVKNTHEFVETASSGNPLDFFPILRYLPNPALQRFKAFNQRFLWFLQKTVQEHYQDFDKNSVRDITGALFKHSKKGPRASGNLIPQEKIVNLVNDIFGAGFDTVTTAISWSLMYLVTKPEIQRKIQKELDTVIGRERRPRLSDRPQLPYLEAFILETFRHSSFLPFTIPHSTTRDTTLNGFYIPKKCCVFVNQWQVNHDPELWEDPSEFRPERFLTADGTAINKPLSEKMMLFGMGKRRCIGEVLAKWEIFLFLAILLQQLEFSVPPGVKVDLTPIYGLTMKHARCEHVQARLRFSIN
Experimental: (§1) The ability of the compounds described herein to inhibit cytochrome P450 activity was determined in vitro using cDNA-expressed human cytochrome P450 enzymes (Supersomes) obtained from GENTEST Corporation and various fluorescent probe substrates. Fluorometric Cytochrome P450 Inhibition assays were conducted in 96 well micotitre plates as described by GENTEST Corporation, Woburn Mass. […] Compounds were dissolved in 70% DMSO such that the concentration of DMSO in the assay was 0.7%. Varying concentrations of all test compounds (10 μM, 3 μM, 1 μM, 300 nM and 100 nM) were incubated with Supersomes individually expressing the five principal drug metabolizing cytochrome P450s, CYP1A2, 2C9, 2C19, 2D6, and 3A4 and their respective substrates. […] Incubations with known inhibitors of each P450 isoform were included as positive controls. Fluorescence per well was measured using a Spectramax Gemini XS (Molecular Devices) and IC50 values of the compounds tested were determined using the 5 point dose response. The sigmoidal dose response curves were generated by non linear regression using a four parameter logistic equation.

CYP2C19 = CYP2C19 (Homo sapiens, UniProt P33261); test: biochemical
Chain of CYP2C19 (P33261 whole entry): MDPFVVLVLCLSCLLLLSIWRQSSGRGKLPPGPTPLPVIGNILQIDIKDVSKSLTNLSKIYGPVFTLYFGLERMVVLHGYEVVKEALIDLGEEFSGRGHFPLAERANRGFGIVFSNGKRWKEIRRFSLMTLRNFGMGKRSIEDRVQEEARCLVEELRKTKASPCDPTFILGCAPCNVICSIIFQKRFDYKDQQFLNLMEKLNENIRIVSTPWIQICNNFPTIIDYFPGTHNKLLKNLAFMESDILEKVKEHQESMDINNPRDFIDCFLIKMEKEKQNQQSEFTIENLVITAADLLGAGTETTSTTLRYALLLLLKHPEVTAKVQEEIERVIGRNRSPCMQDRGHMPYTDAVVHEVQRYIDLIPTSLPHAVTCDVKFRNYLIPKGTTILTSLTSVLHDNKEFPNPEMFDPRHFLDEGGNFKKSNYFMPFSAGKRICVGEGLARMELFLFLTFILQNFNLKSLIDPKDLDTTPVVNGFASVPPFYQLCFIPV
Experimental: as §1

CYP2D6 = CYP2D6 (Homo sapiens, UniProt P10635); test: biochemical
Chain of CYP2D6 (P10635 whole entry): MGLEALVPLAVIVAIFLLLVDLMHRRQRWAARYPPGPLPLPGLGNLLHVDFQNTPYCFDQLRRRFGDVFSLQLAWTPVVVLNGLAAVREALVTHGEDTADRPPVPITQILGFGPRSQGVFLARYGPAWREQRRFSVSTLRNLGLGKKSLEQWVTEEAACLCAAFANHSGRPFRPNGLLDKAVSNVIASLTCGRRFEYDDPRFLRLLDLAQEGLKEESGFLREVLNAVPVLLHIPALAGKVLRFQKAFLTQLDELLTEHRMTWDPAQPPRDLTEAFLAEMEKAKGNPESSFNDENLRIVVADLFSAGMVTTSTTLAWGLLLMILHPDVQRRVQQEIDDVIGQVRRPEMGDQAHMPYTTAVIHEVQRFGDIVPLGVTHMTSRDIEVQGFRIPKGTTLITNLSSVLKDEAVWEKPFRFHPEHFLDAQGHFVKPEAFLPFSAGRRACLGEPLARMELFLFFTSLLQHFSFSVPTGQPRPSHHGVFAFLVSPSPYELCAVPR
Experimental: as §1

CYP3A4 = CYP3A4 (Homo sapiens, UniProt P08684); test: biochemical
Chain of CYP3A4 (P08684 whole entry): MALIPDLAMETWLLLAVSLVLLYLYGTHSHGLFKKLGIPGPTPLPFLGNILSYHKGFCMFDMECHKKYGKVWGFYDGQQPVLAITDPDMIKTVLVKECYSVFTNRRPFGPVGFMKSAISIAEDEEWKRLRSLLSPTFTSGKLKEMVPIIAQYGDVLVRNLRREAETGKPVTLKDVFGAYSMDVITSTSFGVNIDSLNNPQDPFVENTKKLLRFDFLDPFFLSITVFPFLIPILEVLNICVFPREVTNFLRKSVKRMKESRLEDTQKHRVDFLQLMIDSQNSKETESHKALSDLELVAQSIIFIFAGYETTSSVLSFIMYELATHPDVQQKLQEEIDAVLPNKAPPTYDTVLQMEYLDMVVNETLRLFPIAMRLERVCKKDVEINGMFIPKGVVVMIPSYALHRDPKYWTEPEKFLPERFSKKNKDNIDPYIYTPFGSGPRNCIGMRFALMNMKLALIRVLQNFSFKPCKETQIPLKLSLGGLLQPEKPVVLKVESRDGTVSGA
Experimental: as §1

| IC50 (CYP2C9) [µM] | IC50 (CYP1A2) [µM] | IC50 (CYP2C19) [µM] | IC50 (CYP2D6) [µM] | IC50 (CYP3A4) [µM] | Compound |
| --- | --- | --- | --- | --- | --- |
| > 20 | > 20 | > 20 | > 20 | > 20 | CNC(=O)c1cc(COc2nnc(Nc3ccc(Cl)cc3)c3ccccc23)ccn1 |
| > 20 | > 20 | 15 | > 20 | 10 | NC(=O)c1cc(Cc2nnc(Nc3ccc(Cl)cc3)c3ccccc23)ccn1 |
| 4 | 4.5 | > 20 | > 20 | 0.48 | CNC(=O)c1cc(COc2nnc(Nc3ccc4c(c3)CCC4)c3ccoc23)ccn1 |
| > 20 | > 20 | > 20 | > 20 | 3.3 | O=C(NC1CC1)c1cc(COC2=NN=C(Nc3ccc(Cl)cc3)C3C=COC23)ccn1 (stereo not shown) |
| > 20 | > 20 |  | > 20 | > 20 | CNC(=O)c1cc(COc2nnc(Nc3ccc(F)cc3)c3ccoc23)ccn1 |
| 0.46 | 0.5 | 7.5 | 0.4 | 0.12 | Clc1ccc(NC2=NN=C(OCc3ccncc3)C3SC=CC23)cc1 (stereo not shown) |
| > 20 | 4.2 | > 20 | > 20 | 1.8 | CNC(=O)c1cc(COc2nnc(Nc3ccc(OC)cc3)c3ccoc23)ccn1 |
| 3.9 | > 20 | 9.9 | > 20 | > 20 | Clc1ccc(Nc2nnc(Nc3ccc4ncsc4c3)c3sccc23)cc1 |
| > 20 | > 20 |  | > 20 | > 20 | CNC(=O)c1cc(COc2nnc(Nc3cccc(C)c3)c3ccsc23)ccn1 |
| 0.11 | 0.17 | 0.07 | 0.21 | 0.14 | Clc1ccc(Nc2ncc(Cc3ccncc3)c3ccccc23)cc1 |
| 1.6 | 3.8 | 0.85 | 10 | 1.3 | CNC(=O)c1cc(Cc2cnc(Nc3ccc(Cl)cc3)c3ccccc23)ccn1 |
| 4.7 | 3.3 | > 20 | 14 | 1 | NC(=O)c1cc(COC2=NN=C(Nc3ccc(Cl)cc3)C3C=CSC23)ccn1 (stereo not shown) |
| > 20 | > 20 | > 20 | > 20 | > 20 | CNC(=O)c1cc(COC2=NN=C(Nc3ccc(Cl)cc3)C3C=CSC23)ccn1 (stereo not shown) |
| 5.7 | > 20 | 11 | > 20 | 2.2 | CNC(=O)c1cc(Cc2nnc(Nc3ccc(Cl)cc3)c3ccccc23)ccn1 |
| 1.9 | 3.3 | 1.2 | 15 | 1.2 | NC(=O)c1cc(Cc2cnc(Nc3ccc(Cl)cc3)c3ccccc23)ccn1 |
| > 20 | 3.5 | > 20 | > 20 | 11 | CN(C)C(=O)c1cc(COC2=NN=C(Nc3ccc(Cl)cc3)C3C=COC23)ccn1 (stereo not shown) |
| > 20 | 17 | > 20 | > 20 | 2.1 | NC(=O)c1cc(COC2=NN=C(Nc3ccc(Cl)cc3)C3C=COC23)ccn1 (stereo not shown) |
| > 20 | 11 | > 20 | > 20 | 7.6 | CNC(=O)c1cc(COc2nnc(Nc3ccc4c(c3)OCC4)c3ccoc23)ccn1 |
| 0.29 | 0.24 | 0.79 | 0.33 | 0.07 | Clc1ccc(Nc2nnc(OCc3ccncc3)c3ccccc23)cc1 [WO 98/35958 (Example 50), reference compound] |
| 0.65 | 1.49 | 0.24 | 0.33 |  | Clc1ccc(Nc2nnc(Cc3ccncc3)c3ccccc23)cc1 [WO 98/35958 (Example 4), reference compound] |
| 0.95 | 1.5 | 5.4 | 1.3 | 0.42 | NC(=O)c1cc(COc2nnc(Nc3ccc(Cl)cc3)c3ccccc23)ccn1 |
| 0.68 | 0.66 | 1.7 | 0.78 | 0.39 | Clc1ccc(NC2=NN=C(OCc3ccncc3)C3OC=CC23)cc1 (stereo not shown) |
| > 20 | > 20 | > 20 | > 20 | 19 | CNC(=O)c1cc(COC2=NN=C(Nc3ccc(Cl)cc3)C3C=COC23)ccn1 (stereo not shown) |
